≈ marks a conversion by molar mass, not a printed value.

One data set has as its system Mycolicibacterium phlei. In words: Antimycobacterial activity against Mycobacterium phlei CMCC 93201 after 72 hrs by serial double dilution method. The following applies: CMCC 93201, 72 h. The data set is classed as functional.
Data set [1] relates to Mycolicibacterium smegmatis. In words: Antimycobacterial activity against Mycobacterium smegmatis CMCC 93202 after 72 hrs by serial double dilution method. The data set is classed as functional. The following applies: CMCC 93202, 72 h.
Data set [2] in a line: Cytotoxicity against african green monkey Vero cells after 72 hrs by MTT assay. The data set is classed as cell-based. The following applies: chlorocebus sabaeus. (Formazan colour is commonly taken as a measure of viable cells.)
Data set [3] concerns Mycobacterium tuberculosis. In words: Antimycobacterial activity against Mycobacterium tuberculosis 09710 after 72 hrs by serial double dilution method. The data set is classed as functional. The following applies: Mycobacterium tuberculosis, 09710, 72 h.
Data set [4] in a line: Lipophilicity, log P of the compound. The data set is classed as physicochemical. To be noted: octanol/water.
Data set [5] relates to Mycobacterium tuberculosis. In words: Antimycobacterial activity against Mycobacterium tuberculosis H37Rv ATCC 27294 after 72 hrs by serial double dilution method. In kind it is functional. To be noted: H37Rv ATCC 27294, 72 h.

Broadly, the MIC is the smallest concentration in the dilution series that meets the test's criterion for growth inhibition. A word on the CC50: it is the concentration that lowers cell viability or growth by half. `COc1c(N2CCCC(N(C)CCN3C(=O)C(=O)c4ccccc43)C2)c(F)cc2c(=O)c(C(=O)O)cn(C3CC3)c12` (centres undefined): the MIC (against Mycolicibacterium phlei; in data set [1]) was 25 µg/mL (≈ 44.4 µM) in each case. The compound further gave a cytotoxic concentration (CC50) at 72 h in data set [2] of 137 µM.
As to `COc1c(N2CCCC(N(C)CCN3C(=O)C(=O)c4cc(F)ccc43)C2)c(F)cc2c(=O)c(C(=O)O)cn(C3CC3)c12` (centres undefined), the MIC worked out at 25 µg/mL (≈ 43.1 µM) with Mycolicibacterium phlei, 64 µg/mL (≈ 110 µM) in data set [3] and 12.5 µg/mL (≈ 21.5 µM) in data set [1]. In addition, the CC50 at 72 h in data set [2] turned out to be 96.2 µM.
As for `COc1c(N2CCCC(N(C)CCN3C(=O)/C(=N/O)c4cc(F)ccc43)C2)c(F)cc2c(=O)c(C(=O)O)cn(C3CC3)c12` (centres undefined), the results for the MIC (against Mycolicibacterium phlei; in data set [1]) were 6.25 µg/mL (≈ 10.5 µM) and 12.5 µg/mL (≈ 21 µM), respectively. It took 306 µM to reach half-maximal cytotoxicity in data set [2] (CC50 at 72 h).
For `CO/N=C1/C(=O)N(CCN(C)C2CCCN(c3c(F)cc4c(=O)c(C(=O)O)cn(C5CC5)c4c3OC)C2)c2ccccc21` (centres undefined) the same measures were 3.12 µg/mL (≈ 5.27 µM), 6.25 µg/mL (≈ 10.6 µM) and 15 µM.
For `CO/N=C1/C(=O)N(CCN(C)C2CCCN(c3c(F)cc4c(=O)c(C(=O)O)cn(C5CC5)c4c3OC)C2)c2ccc(F)cc21` (centres undefined), the results for the minimum inhibitory concentration (MIC) (against Mycolicibacterium phlei; in data set [1]) were 3.12 µg/mL (≈ 5.12 µM) and 6.25 µg/mL (≈ 10.3 µM), respectively. For the same compound, the CC50 at 72 h in data set [2] came out at 12.8 µM.
Broadly, the logP is a log measure of how a compound divides between an organic and an aqueous phase. On to `CCO/N=C1/C(=O)N(CCN(C)C2CCCN(c3c(F)cc4c(=O)c(C(=O)O)cn(C5CC5)c4c3OC)C2)c2ccccc21` (centres undefined), for which the MIC in the data set on Mycolicibacterium phlei came to 3.12 µg/mL (≈ 5.15 µM); in data set [1] it was 6.25 µg/mL (≈ 10.3 µM). Also, the 50% cytotoxic concentration (CC50) at 72 h in data set [2] worked out at 60.5 µM. In data set [4], this compound had a logP of 0.96.
On to `CCO/N=C1/C(=O)N(CCN(C)C2CCCN(c3c(F)cc4c(=O)c(C(=O)O)cn(C5CC5)c4c3OC)C2)c2ccc(F)cc21` (centres undefined), for which the MIC against Mycolicibacterium phlei is 3.12 µg/mL (≈ 5 µM); in data set [1], 6.25 µg/mL (≈ 10 µM). This compound also displayed a 50% cytotoxic concentration (CC50) at 72 h in data set [2] of 53.1 µM. In data set [4], the log partition coefficient (logP) came out at 1.29.
In the case of `COc1c(N2CCCC(N(C)CCN3C(=O)/C(=N\NC(N)=S)c4ccccc43)C2)c(F)cc2c(=O)c(C(=O)O)cn(C3CC3)c12` (centres undefined), the figures for the MIC (against Mycolicibacterium phlei; in data set [1]) were 3.12 µg/mL (≈ 4.91 µM) and 6.25 µg/mL (≈ 9.83 µM), respectively. The compound further gave a CC50 at 72 h in data set [2] of 294 µM. The lipophilicity (logP) in data set [4] is 1.4.
Turning to `COc1c(N2CCCC(N(C)CCN3C(=O)/C(=N\NC(N)=S)c4cc(F)ccc43)C2)c(F)cc2c(=O)c(C(=O)O)cn(C3CC3)c12` (centres undefined), the figures for the minimum inhibitory concentration (MIC) (in the data set with Mycolicibacterium phlei; in data set [1]) were 3.12 µg/mL (≈ 4.77 µM) and 6.25 µg/mL (≈ 9.56 µM), respectively. The CC50 at 72 h in data set [2] was determined as 313 µM. Also, the log partition coefficient (logP) in data set [4] was 1.8.
With `COc1c(N2CCCC(N(C)CCN3C(=O)/C(=N\NC(N)=O)c4ccccc43)C2)c(F)cc2c(=O)c(C(=O)O)cn(C3CC3)c12` (centres undefined), the MIC (in the data set with Mycolicibacterium phlei; in data set [1]) was 12.5 µg/mL (≈ 20.2 µM) each time. In data set [2], this compound had a 50% cytotoxic concentration (CC50) at 72 h of 56.1 µM.
On to `COc1c(N2CCCC(N(C)CCN3C(=O)/C(=N\NC(N)=O)c4cc(F)ccc43)C2)c(F)cc2c(=O)c(C(=O)O)cn(C3CC3)c12` (centres undefined), for which the MIC (against Mycolicibacterium phlei; in data set [1]) was 6.25 µg/mL (≈ 9.8 µM) each time. In addition, the 50% cytotoxic concentration (CC50) at 72 h in data set [2] is 57 µM.
On to `COc1c(N2CCCC(N(C)CCN3C(=O)/C(=N\Nc4ccccc4)c4ccccc43)C2)c(F)cc2c(=O)c(C(=O)O)cn(C3CC3)c12` (centres undefined), for which the figures for the minimum inhibitory concentration (MIC) (against Mycolicibacterium phlei; in data set [1]) were 3.12 µg/mL (≈ 4.78 µM) and 6.25 µg/mL (≈ 9.58 µM), respectively. Also, the CC50 at 72 h in data set [2] was less than 6.1 µM.
In the case of `COc1c(N2CCCC(N(C)CCN3C(=O)/C(=N\Nc4ccccc4)c4cc(F)ccc43)C2)c(F)cc2c(=O)c(C(=O)O)cn(C3CC3)c12` (centres undefined), the values for the minimal inhibitory concentration (MIC) (in the data set with Mycolicibacterium phlei; in data set [1]) were 3.12 µg/mL (≈ 4.65 µM) and 6.25 µg/mL (≈ 9.32 µM), respectively. In addition, the CC50 at 72 h in data set [2] is less than 6 µM.
For the compound `CNC1CCCN(c2c(F)cc3c(=O)c(C(=O)O)cn(C4CC4)c3c2OC)C1` (centres undefined) [BALOFLOXACIN], the minimal inhibitory concentration (MIC) with Mycolicibacterium phlei is 0.78 µg/mL (≈ 2 µM); in data set [3], 16 µg/mL (≈ 41.1 µM); in data set [1], 0.39 µg/mL (≈ 1 µM); in data set [5] it was 8 µg/mL (≈ 20.5 µM). The same compound came in with a half-maximal cytotoxic concentration (CC50) at 72 h in data set [2] of 317 µM. In data set [4], this compound displayed a logP of -1.11.
For `COc1c(N2C[C@@H]3CCCN[C@@H]3C2)c(F)cc2c(=O)c(C(=O)O)cn(C3CC3)c12` [MOXIFLOXACIN], the MIC in the data set on Mycolicibacterium phlei was 0.2 µg/mL (≈ 0.498 µM); in data set [3], less than 0.5 µg/mL; in data set [1], 0.1 µg/mL (≈ 0.249 µM); in data set [5], 0.25 µg/mL (≈ 0.623 µM).

These data come from ChEMBL document CHEMBL1208676, “Synthesis and in vitro antimycobacterial activity of balofloxacin ethylene isatin derivatives” (Eur J Med Chem, 2010).
